Experimental data: patent US9796672B2, “Isoindoline compositions and methods for treating neurodegenerative disease” (Cognition Therapeutics, Inc., priority 2014, dated 2017)
“Also recorded” adds a separate entry of the source.

Tests used:
[1] = Mouse liver microsome (MLM) stability; assay type: in vitro ADME
Description: A first pharmacokinetic study was performed in microsomes of mice mouse liver microsomes, MLM) by a commercial contract research organization. The studies were performed according to Obach, R. S et al. (1997) J. Pharmacol. Exp. Ther., 283: 46-58, which is incorporated herein by reference.

neuronal cultures = assay: Functional neuronal phenotype in neuronal cultures; assay type: cell-based; set-up: key: Antagonist: antagonists (block Abeta signaling); Agonist: agonists (block Abeta signaling with U-shaped dose-response curve and toxicity at high doses); Inactive: inactive (no effect in neuronal cultures)
Description: Neuronal cultures are treated with various concentrations of sigma compounds for 24 hours and nuclear intensity compared to vehicle is measured.

[2] = test system: Abeta oligomer-induced membrane trafficking deficits in primary hippocampal neurons; assay: Membrane trafficking/exocytosis (MTT) assay; conditions: read-out: Membrane Trafficking EC50; compound dosed prior to Abeta oligomer addition
Description: Primary hippocampal neurons from E18 Sprague-Dawley rat embryos were plated at optimized concentrations in 384 well plates in NB media (Invitrogen). Neurons were maintained in cultures for 3 weeks, with twice weekly feeding of NB media with N2 supplement (Invitrogen).
MTT reagent (3-(4,5-dimethylthizaol-2yl)-2,5diphenyl tetrazolium bromide) (Roche Molecular Biochemicals) was reconstituted in phosphate buffered saline to 5 mg/mL. 10 μL of MTT labeling reagent is added to each well and incubated at 37° C. for 1 h, then imaged. Exocytosis was assessed by automated microscopy and image processing to quantify the amount of endocytosed and exocytosed formazan.
Each assay plate was formatted so that compounds are tested with and without Abeta oligomer on each plate. […] Reduced formazan was first visible in intracellular vesicles. […] The dye precipitated in the aqueous environment of the culture and formed needle-shaped crystals on the surface of the neuron.

Sigma-1 receptor = Sigma-1 receptor competitive radioligand binding assay; conditions: read-out: Sigma-1 Receptor Affinity, Ki
Description: Radioligand binding assays for Sigma-1 receptors and Sigma-2 receptors were carried out by a commercial contract research organization. For Sigma-1 binding, various concentrations of test compounds from 100 μM to 1 nM were used to displace 8 nM [^3H](+)pentazocine from endogenous receptors on Jurkat cell membranes (Ganapathy M E et al. 1991, J Pharmacol. Exp. Ther. 289:251-260). 10 μM Haloperidol was used to define non-specific binding. […] 10 μM Haloperidol was used to define non-specific binding. Reactions were terminated by rapid filtration through Whatman GF/C filters using a Brandel 12R cell harvester followed by two washes with ice-cold buffer. Radioactivity on the dried filter discs was measured using a liquid scintillation analyzer (Tri-Carb 2900TR; PerkinElmer Life and Analytical Sciences). The displacement curves were plotted and the Ki values of the test ligands for the receptor subtypes were determined using GraphPad Prism (GraphPad Software Inc., San Diego, Calif.). The percentage specific binding was determined by dividing the difference between total bound (disintegrations per minute) and nonspecific bound (disintegrations per minute) by the total bound (disintegrations per minute).

Sigma-2 receptor = Sigma-2 receptor competitive radioligand binding assay; set-up: species or system rat; conditions: read-out: Sigma-2 Receptor Affinity, Ki
Description: Radioligand binding assays for Sigma-1 receptors and Sigma-2 receptors were carried out by a commercial contract research organization. For Sigma-1 binding, various concentrations of test compounds from 100 μM to 1 nM were used to displace 8 nM [^3H](+)pentazocine from endogenous receptors on Jurkat cell membranes (Ganapathy M E et al. 1991, J Pharmacol. Exp. Ther. 289:251-260). 10 μM Haloperidol was used to define non-specific binding. For Sigma-2 receptors various concentrations of test compounds from 100 μM to 1 nM were used to displace 5 nM [^3H] […] (Bowen W D, et al. 1993, Mol. Neuropharmcol 3:117-126). 10 μM Haloperidol was used to define non-specific binding. Reactions were terminated by rapid filtration through Whatman GF/C filters using a Brandel 12R cell harvester followed by two washes with ice-cold buffer. Radioactivity on the dried filter discs was measured using a liquid scintillation analyzer (Tri-Carb 2900TR; PerkinElmer Life and Analytical Sciences). The displacement curves were plotted and the Ki values of the test ligands for the receptor subtypes were determined using GraphPad Prism (GraphPad Software Inc., San Diego, Calif.). The percentage specific binding was determined by dividing the difference between total bound (disintegrations per minute) and nonspecific bound (disintegrations per minute) by the total bound (disintegrations per minute).
The affinity of candidate sigma-2 ligand compounds at sigma-1 and sigma-2 receptors was also determined by displacement of different known labeled sigma-2 or sigma-1 ligands. Filtration assays were conducted according the previously published procedure (Xu, et al., 2005). Test compounds were dissolved in N,N-Dimethylformamide (DMF), dimethyl sulfoxide (DMSO) or ethanol and then diluted in 50 mM Tris-HCl pH 7.4 buffer containing 150 mM NaCl and 100 mM EDTA. Membrane homogenates were made from guinea pig brain for sigma-1 binding assay and rat liver for sigma-2 binding assay. Membrane homogenates were diluted with 50 mM Tris-HCl buffer, pH 8.0 and incubated at 25° C. in a total volume of 150 uL in 96 well plates with the radioligand and test compounds with concentrations ranging from 0.1 nM to 10 uM. After incubation was completed, the reactions were terminated by the addition of 150 uL of ice-cold wash buffer (10 mM Tris HCl, 150 mM NaCl, pH 7.4) using a 96 channel transfer pipette (Fisher Scientific, Pittsburgh, Pa.) and the samples harvested and filtered rapidly through 96 well fiber glass filter plate (Millipore, Billerica, Mass.) that had been presoaked with 100 uL of 50 mM Tris-HCl buffer. Each filter was washed four times with 200 uL of ice-cold wash buffer (10 mM Tris-HCl, 150 mM NaCl, pH 7.4). A Wallac 1450 MicroBeta liquid scintillation counter (Perkin Elmer, Boston, Mass.) was used to quantitate the bound radioactivity.
Nonspecific binding was determined from samples that contained 10 uM of cold haloperidol.
The binding affinity, Ki values was calculated using the method of Cheng and Prusoff.

potassium channel hERG = potassium channel hERG (Homo sapiens (Human), UniProt Q12809); assay: In vitro toxicity, hERG inhibition; assay type: biochemical
potassium channel hERG, sequence (Q12809 whole entry): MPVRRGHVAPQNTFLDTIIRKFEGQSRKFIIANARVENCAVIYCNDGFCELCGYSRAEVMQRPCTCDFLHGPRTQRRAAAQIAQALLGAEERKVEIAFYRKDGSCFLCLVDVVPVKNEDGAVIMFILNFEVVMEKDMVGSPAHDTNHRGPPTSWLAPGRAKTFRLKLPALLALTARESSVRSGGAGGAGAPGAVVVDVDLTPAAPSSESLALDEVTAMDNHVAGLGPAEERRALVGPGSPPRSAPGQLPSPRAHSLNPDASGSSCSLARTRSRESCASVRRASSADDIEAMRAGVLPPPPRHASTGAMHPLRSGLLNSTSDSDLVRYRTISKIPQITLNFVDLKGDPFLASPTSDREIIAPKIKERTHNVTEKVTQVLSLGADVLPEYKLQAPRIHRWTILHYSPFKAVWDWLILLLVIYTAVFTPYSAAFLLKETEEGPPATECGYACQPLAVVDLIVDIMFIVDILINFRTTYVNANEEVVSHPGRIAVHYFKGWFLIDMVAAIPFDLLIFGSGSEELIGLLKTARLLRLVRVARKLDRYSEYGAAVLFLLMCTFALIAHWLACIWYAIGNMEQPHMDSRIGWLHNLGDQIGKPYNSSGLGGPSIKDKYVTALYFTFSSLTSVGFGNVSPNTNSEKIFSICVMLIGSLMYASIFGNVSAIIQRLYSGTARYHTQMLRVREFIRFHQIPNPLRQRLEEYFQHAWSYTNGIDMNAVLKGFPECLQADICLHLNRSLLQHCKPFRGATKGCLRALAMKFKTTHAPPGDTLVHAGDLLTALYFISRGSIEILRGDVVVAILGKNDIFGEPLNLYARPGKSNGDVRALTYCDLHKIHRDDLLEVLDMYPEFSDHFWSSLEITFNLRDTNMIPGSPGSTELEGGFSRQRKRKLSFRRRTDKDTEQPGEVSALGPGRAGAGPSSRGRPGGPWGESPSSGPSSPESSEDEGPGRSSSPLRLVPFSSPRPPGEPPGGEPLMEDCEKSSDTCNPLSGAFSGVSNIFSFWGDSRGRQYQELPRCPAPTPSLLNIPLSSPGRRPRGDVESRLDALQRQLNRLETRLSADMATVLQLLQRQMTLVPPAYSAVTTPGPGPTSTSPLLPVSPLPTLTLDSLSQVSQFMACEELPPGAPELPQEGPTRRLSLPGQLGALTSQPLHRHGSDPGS
Description: In vitro toxicity for Test Compounds is tested in a number of standard assays.

Structure (SMILES) | Mouse liver microsomes, MLM t½ ([1]; mouse, microsomes) [min] | Ki (Sigma-1 receptor) [nM] | Ki (Sigma-2 receptor) [nM] | neuronal phenotype (neuronal cultures) | EC50 [2] [nM] | Mouse liver microsomes, MLM t½ ([1]; mouse liver microsomes) [min] | IC50 (potassium channel hERG) [nM]
COc1cc(CC[C@@H](C)N2Cc3cc4c(cc3C2)OCO4)ccc1O [compound 6] |  |  |  | Antagonist | 300 | 20 | 980
COc1cc(CC[C@@H](C)N2Cc3cc(OC)c(OC)cc3C2)ccc1O [compound 7] |  | 42 | 68 |  |  | 155 | 
CC(CCc1ccc(Cl)c(Cl)c1)N1Cc2ccc3ccccc3c2C1 (stereo not drawn) [compound 19] |  |  |  | Antagonist |  |  | 
CC(C)(CCc1ccc(F)cc1)N1Cc2cccc(F)c2C1 [compound 33] | 9 |  |  | Antagonist | 3300 |  | 
C[C@H](CCc1ccc(OC(=O)N(C)C)c(OC(F)(F)F)c1)N1Cc2cccc(F)c2C1 [compound 41] | 9 | 520 |  | Inactive/ | > 20000 |  | 
COc1cc(CCC(C)(C)N2Cc3cc4c(cc3C2)OCO4)ccc1OCCO [compound 47] | 91 | 1000 |  | Inactive |  |  | 
CC(C)COc1cc(CCC(C)(C)N2Cc3cccc(C(=O)N(C)C)c3C2)ccc1O [compound 89] | 17 |  |  |  |  |  | 
CC(C)COc1cc(CCC(C)(C)N2Cc3cccc(C(=O)N4CCOCC4)c3C2)ccc1O [compound 90] | 9 |  |  |  |  |  | 
CC(C)COc1cc(CCC(C)(C)N2Cc3cccc(C(=O)N4CCN(C)CC4)c3C2)ccc1O [compound 91] | 6 |  |  |  |  |  | 
CC(=O)N1CCN(C(=O)c2cccc3c2CN(C(C)(C)CCc2ccc(O)c(OCC(C)C)c2)C3)CC1 [compound 92] | 7 |  |  |  |  |  | 
CN1CCN(C(=O)c2cccc3c2CN(C(C)(C)CCc2ccc(O)c(OC(F)(F)F)c2)C3)CC1 [compound 93] | 5 |  |  |  |  |  | 
CC(C)(C)Oc1cc(CCC(C)(C)n2cc3ccc(S(C)(=O)=O)cc3c2)ccc1O [compound 95] |  |  | 100 | Antagonist | 1700 |  | 
COc1cccc(CCC(C)(C)N2Cc3cccc(C(=O)N4CCNCC4)c3C2)c1 [compound 98] | 29.35 |  | 10000 | Antagonist/; also recorded: Neuroactive | 350 |  | 
COc1ccc(CCC(C)(C)N2Cc3cccc(C(=O)N4CCNCC4)c3C2)cc1 [compound 99] | 93.3 |  | 1200 | Antagonist/; also recorded: Neuroactive | 200 |  | 
COc1ccc(CCC(C)(C)N2Cc3cccc(C(=O)N4CCNCC4)c3C2)cc1OC [compound 100] | 156.24 |  | 10000 | Antagonist | 1100 |  | 
COc1cccc(CCC(C)(C)n2cc3ccc(S(C)(=O)=O)cc3c2)c1 [compound 104] |  |  | 760 | Inactive | 100000 |  | 
CC(C)(CCc1ccc(Cl)cc1)N1Cc2cccc(C(=O)N3CCNCC3)c2C1 [compound 105] | 106.23 |  | 180 | Neuroactive | 2600 |  | 
COc1cc(CCC(C)(C)N2Cc3cccc(N4CCNCC4)c3C2)ccc1O [compound 107] | 25.21 |  | 10000 | Inactive | 100000 |  | 
CC(C)(C#Cc1ccc2[nH]ncc2c1)N1Cc2ccc(S(C)(=O)=O)cc2C1 [compound 110] | 15.66 |  | 10000 | Inactive | 100000 |  | 
COc1cc(CCC(C)(C)N2Cc3cccc(F)c3C2)ccc1Cl [compound 112] |  |  |  | Antagonist | 260 |  | 
COc1cc(CCC(C)(C)N2Cc3ccc(S(C)(=O)=O)cc3C2)ccc1Cl [compound 113] |  |  |  | Antagonist | 5300 |  | 
CC(C)(C#Cc1ccc2[nH]ncc2c1)N1Cc2cccc(C(=O)N3CCNCC3)c2C1 [compound 114] |  |  |  | Neuroactive | 250 |  | 
CC(C)(CCc1ccc2[nH]ncc2c1)N1Cc2cccc(C(=O)N3CCNCC3)c2C1 [compound 115] |  |  |  | Inactive | 100000 |  | 
CC(C)(CCc1ccc(O)c(Cl)c1)N1Cc2ccc(S(C)(=O)=O)cc2C1 [compound 116] |  |  |  | Inactive | 100000 |  | 
CC(C)(CCc1ccc(O)c(Cl)c1)N1Cc2cccc(F)c2C1 [compound 117] |  |  |  | Antagonist | 1200 |  | 
COc1ccc(CCC(C)(C)N2Cc3cccc(C(=O)N4CCNCC4)c3C2)cc1Cl [compound 118] |  |  |  | Inactive | 100000 |  | 

More lines, main results first:

Mouse liver microsomes, MLM t½ ([1]; mouse, microsomes) [min] | Ki (Sigma-1 receptor) [nM] | Ki (Sigma-2 receptor) [nM] | Structure (SMILES) | neuronal phenotype (neuronal cultures) | EC50 [2] [nM] | Mouse liver microsomes, MLM t½ ([1]; mouse liver microsomes) [min] | IC50 (potassium channel hERG) [nM]
8 |  |  | C[C@H](CCc1ccc(O)c(OC(C)(C)C)c1)N1Cc2cccc(F)c2C1 [60B] | Antagonist | 1600 |  | 
28 |  |  | COc1cc(CC[C@@H](C)N2Cc3ccc(C(F)(F)F)cc3C2)ccc1O [compound 2] | Antagonist | 6700 to 7700 |  | 
21 | 23 | 240 | COc1cc(CC[C@@H](C)N2Cc3cc(Cl)c(Cl)cc3C2)ccc1O [compound 3] | Neuroactive | 3800 |  | 
40 | 33 | 2.2 | C[C@H](CCc1ccc(Cl)c(Cl)c1)N1Cc2ccc(C(F)(F)F)cc2C1 [compound 4] | Inactive | > 20000 |  | 
53 | 56 | 2.7 | C[C@H](CCc1ccc(Cl)c(Cl)c1)N1Cc2cc(Cl)c(Cl)cc2C1 [compound 5] | Inactive | > 20000 |  | 
16 | 41 |  | COc1cc(CC[C@@H](C)N2Cc3cccc(F)c3C2)ccc1O [compound 8] | Antagonist | 250 to 400 |  | 
13 |  |  | C[C@H](CCc1ccc(Cl)c(Cl)c1)N1Cc2ccc(F)cc2C1.Cl [compound 12] | Antagonist | 400 |  | 
15 |  |  | COc1ccc2c(c1)CN([C@H](C)CCc1ccc(Cl)c(Cl)c1)C2.Cl [compound 15] | Inactive | 500 |  | 
12 |  |  | C[C@H](CCc1ccc(Cl)c(Cl)c1)N1Cc2cccc(Cl)c2C1.Cl [compound 16] | Inactive | > 20000 |  | 
10 |  |  | COc1cc(CCC(C)N2Cc3ccc4ccccc4c3C2)ccc1O.Cl (stereo not drawn) [compound 17] | Antagonist | 300 |  | 
46 | 7.5 |  | COc1cc2c(cc1OC)CN(C(C)(C)CCc1ccc(F)cc1)C2 [compound 34] | Antagonist | 13000 |  | 
152 | 100 |  | COc1cc(CC[C@@H](C)N2Cc3ccc(S(C)(=O)=O)cc3C2)ccc1O [compound 68] | Inactive |  |  | 
142 |  |  | COc1cc(CCC(C)(C)N2Cc3ccc(S(C)(=O)=O)cc3C2)ccc1O [compound 77] | Antagonist | 100 |  | 
14 |  |  | CC(C)(CCc1ccc(O)c(OC(F)(F)F)c1)N1Cc2cccc(C(=O)N3CCOCC3)c2C1 [compound 94] |  |  |  | 
<1.75 |  | 6.6 | CC(=O)Oc1ccc(CCC(C)(C)N2Cc3ccc(S(C)(=O)=O)cc3C2)cc1OC(C)(C)C [compound 96] | Inactive | 100000 |  | 
84.21 |  | 11 | COc1ccc(CCC(C)(C)N2Cc3ccc(S(C)(=O)=O)cc3C2)cc1OC [compound 101] | Inactive | 100000 |  | 
20.35 |  | 1.8 | COc1ccc(CCC(C)(C)N2Cc3ccc(S(C)(=O)=O)cc3C2)cc1 [compound 102] | Inactive | 100000 |  | 
15.2 |  | 1.4 | COc1cccc(CCC(C)(C)N2Cc3ccc(S(C)(=O)=O)cc3C2)c1 [compound 103] | Inactive | 100000 |  | 
160.43 |  | 240 | CC(C)(CCc1ccc(Cl)c(Cl)c1)N1Cc2cccc(C(=O)N3CCNCC3)c2C1 [compound 106] | Agonist | 3400 |  | 
1236.31 |  | 15 | CC(C)(CCc1ccc(Cl)c(Cl)c1)N1Cc2ccc(N3CCNCC3)cc2C1 [compound 108] | Inactive | 100000 |  | 
253.79 |  | 31 | CC(C)(CCc1ccc(Cl)c(Cl)c1)N1Cc2cccc(N3CCNCC3)c2C1 [compound 109] | Agonist | 100000 |  | 
27.01 |  | 740 | COc1cc(CCC(C)(C)N2Cc3ccc(N4CCNCC4)cc3C2)ccc1O [compound 111] | Inactive | 100000 |  | 
